Reference: PMC8582824, “Targeting DDX3X Helicase Activity with BA103 Shows Promising Therapeutic Effects in Preclinical Glioblastoma Models” (Cancers, 2021)
Each block holds one molecule with its values, some of them ahead of it.

Tests used:
DDX3X helicase activity = target: T1, DDX3X helicase activity (Homo sapiens, UniProt O00571); assay: FRET-based DDX3X helicase assay; format: biochemical; conditions: for IC50: FRET helicase assay, recombinant DDX3X, read-out: IC50 ± SD, DDX3X anti-enzymatic (helicase) activity
T1 construct: Recombinant his-tagged human full length DDX3X; His tag; made in house; host or cells: ShuffleT7 E. coli
T1 sequence (O00571 whole entry): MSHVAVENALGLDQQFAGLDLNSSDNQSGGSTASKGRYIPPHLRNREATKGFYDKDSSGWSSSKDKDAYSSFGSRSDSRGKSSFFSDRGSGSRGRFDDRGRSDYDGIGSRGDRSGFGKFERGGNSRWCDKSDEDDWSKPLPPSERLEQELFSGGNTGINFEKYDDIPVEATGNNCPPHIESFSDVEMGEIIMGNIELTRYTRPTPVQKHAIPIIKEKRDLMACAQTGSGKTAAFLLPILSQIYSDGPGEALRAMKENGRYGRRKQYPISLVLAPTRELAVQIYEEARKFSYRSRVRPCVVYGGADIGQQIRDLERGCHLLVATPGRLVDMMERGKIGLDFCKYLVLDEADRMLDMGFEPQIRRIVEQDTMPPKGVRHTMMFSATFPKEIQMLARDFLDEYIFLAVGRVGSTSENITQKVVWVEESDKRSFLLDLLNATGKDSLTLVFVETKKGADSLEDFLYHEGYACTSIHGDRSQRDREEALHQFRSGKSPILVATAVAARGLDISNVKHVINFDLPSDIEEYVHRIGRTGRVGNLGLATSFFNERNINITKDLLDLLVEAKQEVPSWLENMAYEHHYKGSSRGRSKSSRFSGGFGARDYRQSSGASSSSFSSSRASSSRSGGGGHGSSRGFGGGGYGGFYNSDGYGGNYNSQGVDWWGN
Protocol: Recombinant his-tagged human full length DDX3X cloned the E. coli expression vector pET-30a(+). ShuffleT7 E. coli cells were transformed with the plasmid and grown at 37 °C up to OD600 = 0.7. DDX3X expression was induced with 0.5 mM IPTG at 15 °C O/N. Cells were harvested by centrifugation, lysed, and the crude extract was centrifuged at 100,000 g for 60 min at 4 °C in a Beckman centrifuge before being loaded onto a FPLC Ni-NTA column (GE Healthcare, Chicago, IL, USA). The column was equilibrated in Buffer A (50 mM Tris-HCl pH 8.0, 250 mM NaCl, 25 mM Imidazole and 20% glycerol). After extensive washing in Buffer A, the column was eluted with a linear gradient in Buffer A from 25 to 250 mM Imidazole. Proteins in the eluted fractions were visualized on SDS-PAGE and tested for the presence of DDX3X by Western blot with anti-DDX3X A300-475A (Bethyl Laboratories, Montgomery, TX, USA) at 1:4000 dilution in 5% milk. Fractions containing the purest DDX3X protein were pooled and stored at −80 °C.
The dsRNA substrate for the helicase assay was prepared by hybridizing two ss RNA oligonucleotides with the following sequences: • Fluo-FAM 5′ […] 3′ • Qu-BHQ1 5′ […] 3′ • DNA capture 5′ […] 3′.
The sequence in Fluo-FAM complementary to Qu-BHQ1 is underlined. Fluo-FAM carries a 6-carboxyfluorescein fluorophore at its 3′ end, while Qu-BHQ1 carries a Black Hole quencher group at its 5′ end. The DNA capture oligonucleotide is complementary to the Qu-BHQ1 oligonucleotide, but it bears no modifications. A helicase assay using the dsRNA substrate was performed in 20 mM TrisHCl (pH 8), 70 mM KCl, 2 mM MgCl2, 2 mM dithiothreititol, 12 units RNasin (Promega), 2 mM ATP, 50 nM dsRNA, and 100 nM capture strand in 20 μL of reaction volume. The unwinding reaction was started by adding 60 pmols of DDX3X recombinant protein and carried out at 37 °C for 40 min using a LightCycler 480 (Roche, Basel, Switzerland). The fluorescence intensity was recorded every 30 s. Values of fluorescence signal in the presence or in the absence of inhibitor molecules were analyzed by linear interpolation, and the corresponding slope values were used to determine the apparent unwinding rate.
The IC50 values have been calculated from dose–response curves. Data (in triplicate) were plotted and analyzed by least-squares nonlinear regression, according to the method of Marquardt–Levenberg, with the computer program GraphPad Prism 6.0. Data were fitted to the following equation:Eobs = Emax/(1 + (IC50/[I])^n)(1) where E(obs) is the observed enzymatic activity in the presence of each inhibitor dose [I]; E(max) is the maximal enzymatic activity in the absence of the inhibitor; and n is an exponential term to take into account sigmoidal dose–response curves.
All the compounds were tested for their ability to inhibit the helicase activity of DDX3X using a fluorescence resonance energy transfer (FRET)-based assay, as previously described. Values of fluorescence signal in the presence or in the absence of inhibitor molecules were analyzed by linear interpolation (for details, see Methods 2.3.2).

U87 cells = assay: MTS cytotoxicity assay, U87 cells; format: cell-based; conditions: 72 h
Protocol: (§1) For CellTiter 96® Aqueous One Solution Cell Proliferation Assay (MTS) (Promega, Madison, WI, USA), cells were seeded at 5 × 10^3 per well in 96-well plates in quadruplicate together a control with no cells to evaluate the background. After 24 h, the culture medium was removed, and fresh medium containing increasing concentrations of chemical compounds was added to cells. […] DMSO was the vehicle used for dilution of the compounds, and its final concentration on cells was less than 0.2%. Medium-only containing wells were included as controls. Cells were incubated with compounds at different concentrations for 72 h, then, 20 µL of CellTiter 96® AQueous One Solution Reagent was added into each well. After 3 h at 37 °C in a humidified, 5% CO2 atmosphere, the absorbance at 492 nm was recorded using an EZREAD400 (Biochrom, Cambridge, United Kingdom) plate reader. The average 490 nm absorbance from the “no cell” control wells was subtracted from all other values to yield background-corrected absorbance. Dose–response curves and CC50 values have been calculated by plotting the absorbance data as a function of inhibitor concentrations and fitting the data by least-squares nonlinear regression, according to the method of Marquardt–Levenberg, with the computer program GraphPad Prism 6.0.
(§2) Cells were incubated with a scalar concentration of DDX3X inhibitors, and after 72 h of treatment, cell viability was assessed by cytotoxicity assay. […] Compounds 4, 6, and BA103 were also evaluated against BJ primary fibroblasts; compound 4 has a cytotoxicity value of 84.7 μM; on the contrary, compounds 6 and BA103 were not toxic up to 200 μM concentration. This further excluded a possible nonspecific cytotoxic effect. […] Due to its interesting profile, compound BA103 was further tested against additional pulmonary (A549), breast (MDA-MB-231), colorectal (HCT-116), osteosarcoma (U2OS), rhabdomyosarcoma (RD18), GBM (DBTRG, U87, and U251) and medulloblastoma (DAOY) cancer cell lines.
(§3) Figure 5 Cytotoxicity of selected compounds. Compounds were assayed on DU-145, PC3, HepG2, Huh-7, HN6, U251, and U87 cell lines. The concentration of the compound, which reduced the number of viable cells by 50% (CC50), was determined by dose–response curve, and the mean CC50 value for each cell line was calculated by triplicate assays (raw data from U87 and U251 cells with dose–response curves used for the calculation of CC50 in Table S1 and Figure S2).
(§4) Table S1: Raw data of optical absorbance at 490 nm from MTS assay in U87 and U251 cells. Tables contain
(§5) means with SD of at least 5 different values that were used for preparation of figure 5.

U251 cells = assay: MTS cytotoxicity assay, U251 cells; format: cell-based; conditions: 72 h
Protocol: as §1, §2, §3, §4, §5

[1] = tested on: panel of cancer cell lines (Du-145, PC3, HepG2, Huh-7, HN6, U87 and U231); assay: Cytotoxicity screen on panel of cancer cell lines; format: cell-based; conditions: 72 h of treatment
Protocol: For CellTiter 96® Aqueous One Solution Cell Proliferation Assay (MTS) (Promega, Madison, WI, USA), cells were seeded at 5 × 10^3 per well in 96-well plates in quadruplicate together a control with no cells to evaluate the background. After 24 h, the culture medium was removed, and fresh medium containing increasing concentrations of chemical compounds was added to cells. The fixed final concentrations were 0.1 μM, 1 μM, 10 μM, and 100 μM. DMSO was the vehicle used for dilution of the compounds, and its final concentration on cells was less than 0.2%. Medium-only containing wells were included as controls. […] After 3 h at 37 °C in a humidified, 5% CO2 atmosphere, the absorbance at 492 nm was recorded using an EZREAD400 (Biochrom, Cambridge, United Kingdom) plate reader. The average 490 nm absorbance from the “no cell” control wells was subtracted from all other values to yield background-corrected absorbance. Dose–response curves and CC50 values have been calculated by plotting the absorbance data as a function of inhibitor concentrations and fitting the data by least-squares nonlinear regression, according to the method of Marquardt–Levenberg, with the computer program GraphPad Prism 6.0.
Cells were incubated with a scalar concentration of DDX3X inhibitors, and after 72 h of treatment, cell viability was assessed by cytotoxicity assay. […]

Molecule: CCCCn1nnc(-c2ccc(NC(=O)Nc3ccccc3C)cc2)n1 [Compound 5, 1-(4-(2-Butyl-2H-tetrazol-5-yl)phenyl)-3-(o-tolyl)urea]
times less active than hit compound 1 (loss of activity) (DDX3X helicase activity; DDX3X helicase inhibition relative to compound 1): 16 times

Molecule: 1-(4-(4-Butyl-1H-1,2,3-triazol-1-yl)phenyl)-3-(4-methylpyridin-3-yl)urea [Compound 14]
IC50 (DDX3X helicase activity): 2 ± 0.3 µM

Molecule: 1-(4-(4-Isopentyl-1H-1,2,3-triazol-1-yl)phenyl)-3-(4-methylpyridin-3-yl)urea [Compound 13]
IC50 (DDX3X helicase activity): 1.5 ± 0.3 µM

Molecule: CC(C)CCc1cn(-c2ccc(NC(=O)Nc3ccccc3C(F)(F)F)cn2)nn1 [Compound 9, 1-(6-(4-Isopentyl-1H-1,2,3-triazol-1-yl)pyridin-3-yl)-3-(2-(trifluoromethyl)phenyl)urea]
IC50 (DDX3X helicase activity): 1.1 ± 0.2 µM

Continued, in another order:

solubility in assay medium (DDX3X helicase activity; during the enzymatic assay): precipitated from medium
Molecule: CCCCc1cc(-c2ccc(NC(=O)Nc3ccccc3C(F)(F)F)cc2)no1 [Compound 2, 1-(4-(5-Butylisoxazol-3-yl)phenyl)-3-(2-(trifluoromethyl)phenyl)urea]

IC50 (DDX3X helicase activity): 50 ± 7 µM
Molecule: CCCCc1nnc(-c2ccc(NC(=O)Nc3ccccc3C(F)(F)F)cc2)s1 [Compound 8, 1-(4-(5-Butyl-1,3,4-thiadiazol-2-yl)phenyl)-3-(2-(trifluoromethyl)phenyl)urea]
mean absorbance at 490 nm (MTS) (U87 cells; U87, 0,01 uM): 2,267
mean absorbance at 490 nm (MTS) (U87 cells; U87, 0,1 uM): 1,994
mean absorbance at 490 nm (MTS) (U87 cells; U87, 1 uM): 1,965
mean absorbance at 490 nm (MTS) (U87 cells; U87, 10 uM): 1,945
mean absorbance at 490 nm (MTS) (U87 cells; U87, 100 uM): 1,054
mean absorbance at 490 nm (MTS) (U251 cells; U251, 0,01 uM): 2,363
mean absorbance at 490 nm (MTS) (U251 cells; U251, 0,1 uM): 2,282
mean absorbance at 490 nm (MTS) (U251 cells; U251, 1 uM): 2,177
mean absorbance at 490 nm (MTS) (U251 cells; U251, 10 uM): 1,806
mean absorbance at 490 nm (MTS) (U251 cells; U251, 100 uM): 0,786
growth inhibition in all the cell lines tested [1]: poorly effective against all the cell lines tested
